Data from patent US20150190416A1, “FILAGGRIN PRODUCTION PROMOTER, THERAPEUTIC AGENT FOR DISEASES ASSOCIATED WITH REDUCTION IN PRODUCTION OF FILAGGRIN, AND METHOD FOR SCREENING FOR SAID THERAPEUTIC AGENT” (KYOTO UNIVERSITY, priority 2012, published 2015).

Experiments:
Assay type in all cases: cell-based, human
GPR142 [1] = experiment: Blocking effect by GPR142 RNAi in NHEK cells (Examples 5 and 6); conditions: GPR142 siRNA, compound 10 nM, 1 day
Procedure: In this example, it was confirmed that the expression-inducing effects of Compound 1 on GPR142 mRNA and FLG mRNA in NHEK cells were blocked by GPR142 RNAi.
1) 5×10^4 cells/well of NHEK cells (Invitrogen) were plated on a 24-well plate. Then, 500 μl of a culture medium containing a medium for proliferating normal human epidermal keratinocytes (HuMedia-KG2, KURABO INDUSTRIES LTD.) supplemented with hEGF (0.1 ng/ml), insulin (10 μg/ml), hydrocortisone (0.5 μg/ml), gentamycin (50 μg/ml), amphotericin B (50 ng/ml), and bovine brain pituitary extract (BPE) (0.4%, v/v) were added to the plate, and the cells were cultured under the conditions of 37° C. and 5% CO2.
2) After culture under the conditions of the step 1) for 1 day, the medium was exchanged for the culture medium of the step 1) to which CaCl2 (1.2 mM in terms of Ca) was further added as Ca, and culture was conducted under the conditions of 37° C. and 5% CO2. After culture for 1 day, the medium was exchanged for the same culture medium containing Ca, and culture was further conducted for 1 day.
3) The NHEK cells of the step 2) were transfected with 50 nM of siRNA per well of the 24-well plate by using a transfection reagent, Lipofectamine RNA Max (Invitrogen) according to the manufacturer's protocol.
The sequences of the used three kinds of GPR142 siRNAs and the sequences of the used control siRNAs (all the siRNAs are manufactured by Invitrogen) are described below.
4) After culture for 1 day after the transfection with siRNA in the step 3), the medium was exchanged for the culture medium of the step 1) to which a DMSO solution of Compound 1 was added at 10 nM per well, and culture was further conducted for 1 day. As a control, a solvent only (vehicle) was added.
5) An extraction reagent (TRIzol™, Invitrogen) was used, and according to the manufacturer's protocol, total RNA was extracted from each of cells treated with the medicament. A reverse transcriptase reagent (Prime Script™, Takara) was used, and according to the manufacturer's protocol, cDNA was prepared from the total RNA. Next, real-time PCR was conducted by using the following primers and SYBR™ Premix Ex Taq (Takara) with a CFX96 real-time PCR instrument according to the manufacturer's protocol, and the amounts of GPR142 mRNA and FLG mRNA expression were measured. The result of measurement is shown as a GAPDH ratio.
In this example, it was confirmed that the expression-inducing effects of Compound 2 or 3 on GPR142 mRNA and FLG mRNA in NHEK cells were blocked by GPR142 RNAi.
NHEK cells were transfected in the same manner as in Example 5 except that, in the steps 1) to 3) of Example 5, two kinds of GPR142 siRNAs and two kinds of control siRNAs, i.e., GPR142-1 (#HSS139493) and GPR142-3 (#HSS179846) and Control-1 (LOW GC, #129350-200), and Control-3 (HIGH GC, #129350-400) were used as GPR142 siRNAs and control siRNAs, respectively. After culture for 1 day after the transfection was conducted in the same manner as in the step 4) of Example 5, the medium was exchanged for the culture medium to which each of a DMSO solution of Compound 1, a DMSO solution of Compound 2, or a methanol solution of Compound 3 was added at 10 nM per well, and culture was further conducted for 1 day. As a control, a solvent only (vehicle) was added. Regarding each of cells treated with the medicament, real-time PCR was conducted to measure the amounts of GPR142 mRNA and FLG mRNA in the same manner as in the step 5) of Example 5. The results of the measurement are shown as a GAPDH ratio.

GPR142 [2] = experiment: Action on adenylate cyclase activity (cAMP) in GPR142-overexpressing HEK293T cells (Examples 8 and 9); conditions: GPR142-overexpressing HEK293T cells, 1,000 nM, forskolin 10 μM, IBMX 1 mM, 20 minutes
Procedure: In this example, the cAMP production-suppressing effect of Compound 1 was confirmed.
1) 6×10^4 cells/well of HEK293T cells were plated on a collagen-coated 24-well plate, a culture medium containing DMEM medium (Invitrogen) supplemented with penicillin (50 μg/ml), streptomycin (50 μg/ml), and fetal bovine serum (FBS) (10%, v/v) was added to the plate, and the cells were cultured under the conditions of 37° C. and 5% CO2.
2) A GPR142PCXN mammalian expression vector was prepared in the same manner as in the step 2) of Example 7.
3) After culture for 1 day under the conditions of the step 1), HEK293T cells were transfected with 0.2 μg of the GPR142PCXN mammalian expression vector per well by using a transfection reagent Fugene™ HD (Promega Corporation) according to the manufacturer's protocol. As a control, cells transfected only with the PCXN mammalian expression vector were used.
4) After culture for 1 day after the transfection described above, 1 mM of isobutylmethylxanthine (IBMX), which was a cAMP phosphodiesterase inhibitory substance, was added to HEK293T cells, and thereafter, the cells were cultured for 10 minutes at 37° C.
5) Next, the medium was exchanged for the culture medium to which 0.1 nM to 1000 nM of a DMSO solution of Compound 1, 10 μM of forskolin, and 1 mM of IBMX per well were added, and the cells were further cultured for 20 minutes at 37° C. As a control, a solvent (vehicle), 10 μM of forskolin, and 1 mM of IBMX were added.
6) The cells cultured in the step 5) were lysed by 0.1 mol/L of HCl. The cAMP concentration within the cells was measured by using Cyclic AMP EIA Kit (Cayman Chemical Company) according to the manufacturer's protocol. The result is shown as the ratio (%) of the cAMP concentration in the cells treated with Compound 1 with respect to the cAMP concentration in the control example defined as 100%.
In this example, the cAMP production-suppressing effect of Compound 2 or 3 was confirmed.
HEK293T cells were cultured in the same manner as in the steps 1) to 4) of Example 8. Next, the cells were cultured in the same manner as in the step 5) of Example 8 except that, in the step 5) of Example 8, each of a methanol solution of Compound 3, a DMSO solution of Compound 2, and a DMSO solution of Comparative Compound 2 was used at 1,000 nM per well instead of Compound 1. The cAMP concentration in the cultured cells was measured in the same manner as in the step 6) of Example 8.

FLG monomer = FLG monomer in three-dimensional cultured skin, Western blotting (Example 11); conditions: 1 μM, immunoblotting
Procedure: In this example, the expression-increasing effect of Compound 1 on FLG monomer was examined by using a three-dimensional cultured skin. The expression of the FLG monomer was confirmed by Western blotting.
In this example, the same procedures as those in the steps 1) to 3) of Example 10 were conducted. It should be noted that as a medicament, D) Comparative Compound 3 (M344) was used, as well as A) Compound 1 and C) Comparative Compound 2 of Example 10.
4) The three-dimensional cultured skin obtained in the same manner as in the steps 1) to 3) of Example 10 was recovered, and was cut into pieces with scissors. Then, 100 μl of Lysis buffer (0.1 M Tris-HCl (pH 9.0), 6 M Urea, 1% 2-mercapto-ethanol, 1% SDS, 1 mM EDTA, and Protease inhibitor cocktail) were added and the cells were homogenized with an electrically powered pestle. The homogenized cells were centrifuged at 15,000 rpm at 4° C. for 20 minutes, and the supernatant was recovered to be used as a sample for measurement. The total protein in the sample was quantified by using a protein assay reagent (Bio-Rad Laboratories, Inc.) according to the manufacturer's protocol. The protein was adjusted so that each sample contained 15 μg protein/lane, and the samples were subjected to electrophoresis by SDS-PAGE (Invitrogen, NuPAE Novex Bis-Tris mini Gel 4 to 12%) under the conditions of 100 V and 2 hours. As a marker, Precision Plus Protein Standards (Bio-Rad Laboratories, Inc.) was used. The proteins separated by the electrophoresis were transferred to a PVDF membrane (blotting), and the expression of FLG monomer was confirmed by using an anti-FLG antibody (Filaggrin AKH1, Santa Crus). At that time, Anti-mouse IgG-HRP (GE Healthcare) was used as a secondary antibody, and Amersham ECL Plus Western Blotting Detection Reagents (GE Healthcare) was used as a color developer.

Structure (SMILES)	induction of FLG mRNA expression: dependence on GPR142 (GPR142 [1])	decrease of cAMP production (GPR142 [2])	production of FLG monomer (FLG monomer)
COC(=O)CNC(Cc1ccccc1)C(=O)Nc1cc(-c2ccncc2)nn1C.Cl.Cl (stereo not drawn) [Compound 3, Methyl 2-(1-(1-methyl-3-(pyridine-4-yl)-1H-pyrazol-5-ylamino)-1-oxo-3-phenylpropan-2-ylamino)acetate dihydrochloride]	mediated by GPR142	about 24%	–
CN(C)c1ccc(C(=O)NCCCCCCC(=O)NO)cc1 [Comparative Compound 3, 4-Dimethylamino-N-(6-hydroxycarbamoylhexyl)benzamide, reference compound]	–	–	clear production of FLG monomer was not observed
